Test [1] has as its system D-aminoacylase from the Defluvibacter sp. A131-3 strain. Kind of test: Effects of metal ions on D-aminoacylase activity (D-valine produced, HPLC). The class given is biochemical. As to conditions: for Relative activity (%): metal ion 1.0 mmol/L, 0.5 mol/L N-acetyl-D-valine, enzyme 500 U, 40° C., 1 day, no metal addition = 100%.
Test [2] has the same test system. Kind of test: Substrate specificity, acylase activity measurement using D-/L-amino acid oxidase chromogenic reagent. It counts as biochemical. As to conditions: for Substrate specificity: whether the enzyme acts on the substrate: D- or L-amino acid oxidase detection; for Relative activity (% in relation to Met): activity of N-acetyl-D-methionine = 100; for Relative activity (% in relation to Met) / Relative activity (% in relation to Val): 100 mmol/L substrate solution, pH 8, 37° C., 30 minutes; for Relative activity (% in relation to Val): activity of N-acetyl-D-valine = 100. From the text: (4) Substrate specificity: Substrate specificity of the acylase of the present invention was confirmed by using the following N-acetyl-D-amino acids and N-acetyl-L-amino acids as the substrate and combining therewith the D-amino acid oxidase or the L-amino acid oxidase. The acylase of the present invention acts on the following N-acetyl-D-amino acids but not on the N-acetyl-L-amino acids.
In the measurement of the reactivity with the L-amino acids, an oxidase for L-amino acids is used instead of the D-amino acid oxidase in the activity measurement as will be described below.
4. Substrate specificity was determined by an activity measurement method using the chromogenic reagents for the D- and L-amino acid oxidases as described above.

Entries after “also recorded” stand apart in the source; their conditions may differ.

On to `[Cl-].[K+]` [Potassium chloride, potassium chloride], for which the “Relative activity (%)” value in test [1] stood at 92%.
As to `CC(=O)N[C@H](Cc1ccccc1)C(=O)O` [N-Ac-D-Phe, N-acetyl-D-phenylalanine], in test [2], the “Substrate specificity: whether the enzyme acts on the substrate” value (shortened to “Substrate specificity”) is “to some extent; also recorded: acting on”, the “Relative activity (% in relation to Met)” value amounted to 37% and the “Relative activity (% in relation to Val)” value is recorded as 4.8%.
With `O.O.O.O.[Cl][Mn][Cl]` [Manganese chloride, manganese (II) chloride tetrahydrate], the “Effects of metal ions on activity” value in test [1] (each at 1 mmol/L) is recorded as “inhibited”. The “Relative activity (%)” value in test [1] stood at 48%.
For `CSCC[C@H](NC(C)=O)C(=O)O` [N-Ac-L-Met, N-acetyl-L-methionine], in test [2], the “Substrate specificity” value is on record as “does not act on”, the “Relative activity (% in relation to Met)” value turned out to be 0% and the “Relative activity (% in relation to Val)” value is on record as 0%.
As to `CC(=O)N[C@@H](CC(C)C)C(=O)O` [N-Ac-L-Leu, N-acetyl-L-leucine], in test [2], the “Substrate specificity” value is “does not act on”, the “Relative activity (% in relation to Met)” value is 0% and the “Relative activity (% in relation to Val)” value worked out at 0%.
`CC(=O)N[C@H](Cc1c[nH]c2ccccc12)C(=O)O` [N-Ac-D-Trp, N-acetyl-D-tryptophan]: in test [2], the “Substrate specificity” value is recorded as “to some extent”, the “Relative activity (% in relation to Met)” value is on record as 1.1% and the “Relative activity (% in relation to Val)” value is 0.2%. Further, in test [2] (listed as N-acetyl-D-triptophan), the “Substrate specificity” value is on record as “acting on”.
`CSCC[C@@H](NC(C)=O)C(=O)O` [N-Ac-D-Met, N-acetyl-D-methionine]: in test [2], the “Substrate specificity” value was “to some extent; also recorded: acting on”, the “Relative activity (% in relation to Met)” value is reported as 100% and the “Relative activity (% in relation to Val)” value is 13%.
Consider `CC(=O)N[C@H](CCC(=O)O)C(=O)O` [N-Ac-D-Glu, N-acetyl-D-glutamic acid], for which, in test [2], the “Relative activity (% in relation to Met)” value came to 0% and the “Relative activity (% in relation to Val)” value turned out to be 0%.
`CC(=O)N[C@@H](Cc1ccc(O)cc1)C(=O)O` [N-Ac-L-Tyr, N-acetyl-L-tyrosine]: in test [2], the “Substrate specificity” value was “does not act on”, the “Relative activity (% in relation to Met)” value worked out at 0% and the “Relative activity (% in relation to Val)” value is reported as 0%.
As to `CC(=O)N[C@@H](Cc1ccccc1)C(=O)O` [N-Ac-L-Phe, N-acetyl-L-phenylalanine], in test [2], the “Substrate specificity” value is “does not act on”, the “Relative activity (% in relation to Met)” value is listed as 0% and the “Relative activity (% in relation to Val)” value amounted to 0%.
Consider `CC(=O)N[C@H](Cc1ccc(O)cc1)C(=O)O` [N-Ac-D-Tyr, N-acetyl-D-tyrosine], for which, in test [2], the “Substrate specificity” value is listed as “to some extent; also recorded: acting on”, the “Relative activity (% in relation to Met)” value was found to be 8.4% and the “Relative activity (% in relation to Val)” value was 1.1%.
Regarding `CC(=O)N[C@@H](C(=O)O)C(C)C` [N-Ac-D-Val, N-acetyl-D-valine], in test [2], the “Substrate specificity” value was “acted most effectively; also recorded: acting on”, the “Relative activity (% in relation to Met)” value is reported as 762% and the “Relative activity (% in relation to Val)” value was determined as 100%.
For `CC(=O)N[C@@H](CCC(=O)O)C(=O)O` [N-Ac-L-Glu, N-acetyl-L-glutamic acid], in test [2], the “Relative activity (% in relation to Met)” value was 0% and the “Relative activity (% in relation to Val)” value is reported as 0%.
Take `CC(=O)N[C@H](CC(C)C)C(=O)O` [N-Ac-D-Leu, N-acetyl-D-leucine]: in test [2], the “Substrate specificity” value is on record as “to some extent; also recorded: acting on”, the “Relative activity (% in relation to Met)” value is given as 555% and the “Relative activity (% in relation to Val)” value is given as 73%.
Regarding `CC(=O)N[C@@H](Cc1c[nH]c2ccccc12)C(=O)O` [N-Ac-L-Trp, N-acetyl-L-tryptophan], in test [2], the “Substrate specificity” value was “does not act on”, the “Relative activity (% in relation to Met)” value was found to be 0% and the “Relative activity (% in relation to Val)” value came out at 0%.

These data come from US20080096244A1, “D-AMINOACYLASE” (DAIICHI PURE CHEMICALS CO., LTD., priority 2002, published 2008).
